The structures appear in SMILES notation. Bounds are passed on as bounds.

One test deals with T1, FGFR1 (Homo sapiens, UniProt P11362).
T1 construct: purchased Carna 08-133
Put plainly: FGFR1 Biochemical Caliper Assay (KinEASE-TK kit). To be noted: ratio FGFR1/FGFR2 of the biochemical assay. Put shortly: (§1)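 KinEASE-TK HTRF readout: enzyme at 0.2 nM (FGFR1, FGFR3) preincubated 10 min at RT with 10-point 3-fold compound dilutions before TK-substrate/ATP start.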

The target in the next test is T2, FGFR3 (Homo sapiens, UniProt P22607).
T2 construct: purchased Carna 08-135
The test is described as follows: FGFR3 Biochemical Caliper Assay (KinEASE-TK kit). Particulars: ratio FGFR3/FGFR2 of the biochemical assay. Put shortly: as §1

The subject of the next test is SNU16 cells. Put plainly: SNU16 Cancer Cell Line Proliferation Assay (CellTiter-Glo). It is filed as cell-based. Particulars: Homo sapiens, SNU-16, 72 h. The essentials:
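SNU16 cells at 5000/well exposed to 9-point 3-fold serial compound dilutions (DMSO control) for 72 h at 37 °C, 5% CO2. Viability read by luminescence; IC50 calculated from dose-response.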

Another test addresses T3, FGFR2 (Homo sapiens, UniProt P21802).
T3 construct: purchased Carna 08-134
Put plainly: FGFR2 Biochemical Caliper Assay (KinEASE-TK kit). Particulars: 0.07 nM FGFR2; compound incubated with protein 10 min, reaction 45 min at RT; read-out: FGFR2 Cliper IC50.

T3 sequence (P21802 22-821): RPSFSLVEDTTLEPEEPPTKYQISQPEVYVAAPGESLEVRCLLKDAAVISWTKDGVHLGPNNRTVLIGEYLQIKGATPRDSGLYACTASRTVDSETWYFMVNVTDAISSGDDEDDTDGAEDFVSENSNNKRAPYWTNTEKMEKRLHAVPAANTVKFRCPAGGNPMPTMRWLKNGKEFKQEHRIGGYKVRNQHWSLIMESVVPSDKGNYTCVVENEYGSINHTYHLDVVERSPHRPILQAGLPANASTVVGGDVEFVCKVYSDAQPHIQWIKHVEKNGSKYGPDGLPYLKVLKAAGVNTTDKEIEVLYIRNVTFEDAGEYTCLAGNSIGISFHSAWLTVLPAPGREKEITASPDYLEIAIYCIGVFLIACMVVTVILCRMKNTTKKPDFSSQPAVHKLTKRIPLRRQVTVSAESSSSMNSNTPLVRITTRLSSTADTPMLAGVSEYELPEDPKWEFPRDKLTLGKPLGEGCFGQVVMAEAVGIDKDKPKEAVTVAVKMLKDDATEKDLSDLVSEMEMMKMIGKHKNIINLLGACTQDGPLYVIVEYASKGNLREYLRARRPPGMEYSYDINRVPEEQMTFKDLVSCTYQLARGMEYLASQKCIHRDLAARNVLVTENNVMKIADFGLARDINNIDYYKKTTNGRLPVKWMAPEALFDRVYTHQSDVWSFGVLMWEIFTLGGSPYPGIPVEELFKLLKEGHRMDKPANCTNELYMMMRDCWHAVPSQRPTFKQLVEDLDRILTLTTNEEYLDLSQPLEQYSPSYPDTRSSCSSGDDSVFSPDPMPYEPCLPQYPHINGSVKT
T1 sequence (P11362 22-822): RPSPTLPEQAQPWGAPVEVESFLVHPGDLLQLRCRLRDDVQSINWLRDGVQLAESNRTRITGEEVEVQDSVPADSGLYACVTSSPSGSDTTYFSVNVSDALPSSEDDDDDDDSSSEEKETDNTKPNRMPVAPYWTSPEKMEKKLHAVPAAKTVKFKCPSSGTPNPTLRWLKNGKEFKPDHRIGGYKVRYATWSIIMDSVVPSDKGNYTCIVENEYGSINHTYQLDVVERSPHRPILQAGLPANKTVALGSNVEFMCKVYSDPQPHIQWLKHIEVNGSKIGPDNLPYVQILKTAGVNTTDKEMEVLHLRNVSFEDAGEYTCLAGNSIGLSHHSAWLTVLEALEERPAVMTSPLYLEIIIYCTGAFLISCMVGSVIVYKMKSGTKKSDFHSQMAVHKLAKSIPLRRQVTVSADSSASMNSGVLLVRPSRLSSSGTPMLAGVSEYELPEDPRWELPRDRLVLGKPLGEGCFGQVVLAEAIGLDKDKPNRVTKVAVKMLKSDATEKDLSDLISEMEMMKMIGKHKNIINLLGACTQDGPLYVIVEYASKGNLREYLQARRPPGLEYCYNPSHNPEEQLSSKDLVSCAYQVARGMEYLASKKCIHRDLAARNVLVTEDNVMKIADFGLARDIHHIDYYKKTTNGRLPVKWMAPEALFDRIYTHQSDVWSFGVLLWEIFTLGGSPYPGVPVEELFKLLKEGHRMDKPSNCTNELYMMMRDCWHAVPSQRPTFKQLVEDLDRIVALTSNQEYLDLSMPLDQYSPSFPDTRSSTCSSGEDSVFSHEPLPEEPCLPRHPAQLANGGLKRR
T2 sequence (P22607 23-806): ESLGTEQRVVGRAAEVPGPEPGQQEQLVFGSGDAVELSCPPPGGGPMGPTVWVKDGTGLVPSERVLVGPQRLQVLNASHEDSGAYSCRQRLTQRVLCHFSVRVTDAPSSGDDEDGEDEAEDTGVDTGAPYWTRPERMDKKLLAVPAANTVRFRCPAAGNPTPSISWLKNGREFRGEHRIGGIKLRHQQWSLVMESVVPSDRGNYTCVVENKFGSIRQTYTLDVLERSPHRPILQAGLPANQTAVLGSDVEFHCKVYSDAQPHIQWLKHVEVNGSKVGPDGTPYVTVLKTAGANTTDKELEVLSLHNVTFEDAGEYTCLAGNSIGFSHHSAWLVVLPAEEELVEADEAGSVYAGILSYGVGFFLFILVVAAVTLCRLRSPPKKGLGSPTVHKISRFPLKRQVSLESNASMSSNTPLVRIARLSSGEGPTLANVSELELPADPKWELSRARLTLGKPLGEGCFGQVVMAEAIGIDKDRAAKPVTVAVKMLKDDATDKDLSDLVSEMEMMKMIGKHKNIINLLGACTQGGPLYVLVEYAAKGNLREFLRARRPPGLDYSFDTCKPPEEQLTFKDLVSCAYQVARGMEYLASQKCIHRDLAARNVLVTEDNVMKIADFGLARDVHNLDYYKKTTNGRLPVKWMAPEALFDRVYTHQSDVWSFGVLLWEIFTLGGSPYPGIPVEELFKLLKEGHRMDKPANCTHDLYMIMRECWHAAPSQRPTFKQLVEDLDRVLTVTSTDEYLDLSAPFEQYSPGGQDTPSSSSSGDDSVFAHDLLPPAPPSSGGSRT

For `C=C(C)C(=O)Nc1ccc(-c2c(-c3ccc(Oc4nccc(C)n4)c(F)c3)c3c(N)ncc(C#N)c3n2C)c(C)c1` [Compound 501, N-(4-(4-amino-7-cyano-3-(3-fluoro-4-((4-methylpyrimidin-2-yl)oxy)phenyl)-1-methyl-1H-pyrrolo[3,2-c]pyridin-2-yl)-3-methylphenyl)methacrylamide], on FGFR1, the “Selectivity FGFR1/FGFR2” value is recorded as “A+ (Selectivity of FGFR1/FGFR2 greater or equal to 500)”. In addition, on FGFR3, the “Selectivity FGFR3/FGFR2” value was “A+ (Selectivity of FGFR3/FGFR2 greater or equal to 150)”. Besides, the IC50 with SNU16 cells is not above 0.01 µM; on FGFR2, more than 0.01 µM.

With `C=CC(=O)Nc1ccc(-c2nn3ncnc(N)c3c2-c2ccc(Oc3nccc(CC)n3)c(F)c2)cc1` [Compound 400, N-(4-(4-amino-5-(4-((4-ethylpyrimidin-2-yl)oxy)-3-fluorophenyl)pyrazolo[5,1-f][1,2,4]triazin-6-yl)phenyl)acrylamide], the “Selectivity FGFR1/FGFR2” value on FGFR1 is listed as “A+ (Selectivity of FGFR1/FGFR2 greater or equal to 500)”. Besides, the “Selectivity FGFR3/FGFR2” value on FGFR3 was “A+ (Selectivity of FGFR3/FGFR2 greater or equal to 150)”. Moreover, the IC50 in the test with SNU16 cells was not above 0.01 µM; at FGFR2 it was less than 0.005 µM.

As to `C=CC(=O)Nc1ccc(-c2c(-c3cc(F)c(Oc4ncc(F)c(C)n4)c(F)c3)c3c(N)ncc(C#N)c3n2C)cc1` [Compound 497], the “Selectivity FGFR1/FGFR2” value at FGFR1 is “A+ (Selectivity of FGFR1/FGFR2 greater or equal to 500)”. For the same molecule, the “Selectivity FGFR3/FGFR2” value at FGFR3 is reported as “A+ (Selectivity of FGFR3/FGFR2 greater or equal to 150)”. The IC50 with SNU16 cells is not above 0.01 µM; at FGFR2 it was less than 0.005 µM.

As for `C=C(C)C(=O)Nc1ccc(-c2nn3ncnc(N)c3c2-c2ccc(Oc3nccc(C)n3)c(F)c2)c(C)c1` [Compound 450], on FGFR1, the “Selectivity FGFR1/FGFR2” value is recorded as “A+ (Selectivity of FGFR1/FGFR2 greater or equal to 500)”. The “Selectivity FGFR3/FGFR2” value on FGFR3 is listed as “B (Selectivity of FGFR3/FGFR2 less than 100 but greater than or equal to 25)”. Besides, the IC50 in the test on SNU16 cells was not above 0.01 µM; on FGFR2, more than 0.01 µM.

For `C=C(F)C(=O)Nc1ccc(-c2nn3ncnc(N)c3c2-c2ccc(C(=O)NC3CC3)c(OC)c2)c(Cl)c1` [Compound 199, 4-(4-amino-6-(2-chloro-4-(2-fluoroacrylamido)phe-nyl)pyrazolo[5,1-f][1,2,4]triazin-5-yl)-N-cyclopropyl-2-methoxybenzamide], on FGFR1, the “Selectivity FGFR1/FGFR2” value was “A+ (Selectivity of FGFR1/FGFR2 greater or equal to 500)”. The “Selectivity FGFR3/FGFR2” value on FGFR3 is reported as “A+ (Selectivity of FGFR3/FGFR2 greater or equal to 150)”. In addition, the IC50 was not above 0.01 µM in the test on SNU16 cells and less than 0.005 µM on FGFR2.

For `C=CC(=O)Nc1ccc(-c2c(-c3ccc(C(=O)NCC(F)(F)F)c(OC)c3)c3c(N)ncc(C#N)c3n2C)c(F)c1` [Compound 150, 4-(2-(4-acrylamido-2-fluorophenyl)-4-amino-7-cyano-1-methyl-1H-pyrrolo[3,2-c]pyridin-3-yl)-2-methoxy-N-(2,2,2-trifluoroethyl)benzamide], on FGFR1, the “Selectivity FGFR1/FGFR2” value is on record as “A+ (Selectivity of FGFR1/FGFR2 greater or equal to 500)”. The “Selectivity FGFR3/FGFR2” value on FGFR3 is recorded as “B (Selectivity of FGFR3/FGFR2 less than 100 but greater than or equal to 25)”. The IC50 with SNU16 cells was not above 0.01 µM; on FGFR2, less than 0.005 µM.

`C=C(F)C(=O)Nc1ccc(-c2[nH]c3c(C#N)cnc(N)c3c2-c2ccc(C(=O)NC3CC(F)(F)C3)c(OC)c2)cc1` [Compound 319, 4-(4-amino-7-cyano-2-(4-(2-fluoroacrylamido)phe-nyl)-1H-pyrrolo[3,2-c]pyridin-3-yl)-N-(3,3-difluorocyclobutyl)-2-methoxybenzamide]: the “Selectivity FGFR1/FGFR2” value on FGFR1 is given as “A (Selectivity of FGFR1/FGFR2 less than 500 but greater than or equal to 300)”. For the same molecule, the “Selectivity FGFR3/FGFR2” value on FGFR3 is recorded as “A+ (Selectivity of FGFR3/FGFR2 greater or equal to 150)”. Moreover, the IC50 in the test on SNU16 cells was not above 0.01 µM; at FGFR2, less than 0.005 µM.

As to `C=C(F)C(=O)Nc1ccc(-c2nn3ncnc(N)c3c2-c2ccc(C(=O)NCC(F)(F)F)c(OC)c2)c(C)c1` [Compound 101, 4-(4-amino-6-(4-(2-fluoroacrylamido)-2-methylphenyl)pyrazolo[5,1-f][1,2,4]triazin-5-yl)-2-methoxy-N-(2,2,2-trifluoroethyl)benzamide], the “Selectivity FGFR1/FGFR2” value on FGFR1 was “A+ (Selectivity of FGFR1/FGFR2 greater or equal to 500)”. Besides, at FGFR3, the “Selectivity FGFR3/FGFR2” value was “B (Selectivity of FGFR3/FGFR2 less than 100 but greater than or equal to 25)”. Besides, the IC50 in the test on SNU16 cells is not above 0.01 µM; on FGFR2, less than 0.005 µM.

As for `C=CC(=O)Nc1ccc(-c2c(-c3ccc(C(=O)NC4CCC4)cc3)c3c(N)ncc(C#N)c3n2C)cc1` [Compound 65, 4-(2-(4-acrylamidophenyl)-4-amino-7-cyano-1-methyl-1H-pyrrolo[3,2-c]pyridin-3-yl)-N-cyclobutylbenzamide], the “Selectivity FGFR1/FGFR2” value at FGFR1 is recorded as “A (Selectivity of FGFR1/FGFR2 less than 500 but greater than or equal to 300)”. Also, the “Selectivity FGFR3/FGFR2” value on FGFR3 is recorded as “A+ (Selectivity of FGFR3/FGFR2 greater or equal to 150)”. Further, the half-inhibitory concentration (IC50) was not above 0.01 µM in the test with SNU16 cells and less than 0.005 µM at FGFR2.

Regarding `C=CC(=O)Nc1ccc(-c2nn3ncnc(N)c3c2-c2ccc(C(=O)C3CCCCC3)c(OC)c2)cc1` [Compound 431, N-(4-(4-amino-5-(4-(cyclohexanecarbonyl)-3-methoxyphenyl)pyrazolo[5,1-f][1,2,4]triazin-6-yl)phenyl) acrylamide], the “Selectivity FGFR1/FGFR2” value on FGFR1 is “A+ (Selectivity of FGFR1/FGFR2 greater or equal to 500)”. The “Selectivity FGFR3/FGFR2” value at FGFR3 is “A+ (Selectivity of FGFR3/FGFR2 greater or equal to 150)”. For the same molecule, the figures for the IC50 in the test with SNU16 cells and at FGFR2 were not above 0.01 µM and more than 0.01 µM, respectively.

As for `CC#CC(=O)Nc1ccc(-c2nn3ncnc(N)c3c2-c2ccc(C(=O)NC3(C(F)(F)F)CC3)c(OC)c2)cc1` [Compound 395], the “Selectivity FGFR1/FGFR2” value on FGFR1 is recorded as “A+ (Selectivity of FGFR1/FGFR2 greater or equal to 500)”. The “Selectivity FGFR3/FGFR2” value at FGFR3 is given as “B (Selectivity of FGFR3/FGFR2 less than 100 but greater than or equal to 25)”. For the same molecule, the IC50 is not above 0.01 µM in the test on SNU16 cells and more than 0.01 µM at FGFR2.

In the case of `C=CC(=O)Nc1ccc(-c2nn3ncnc(N)c3c2-c2ccc(Oc3ccn(C)n3)c(F)c2)cc1` [Compound 402, N-(4-(4-amino-5-(3-fluoro-4-((1-methyl-1H-pyrazol-3-yl)oxy)phenyl)pyrazolo [5,1-f][1,2,4]triazin-6-yl)phenyl)acrylamide], the “Selectivity FGFR1/FGFR2” value at FGFR1 is “A+ (Selectivity of FGFR1/FGFR2 greater or equal to 500)”. Further, the “Selectivity FGFR3/FGFR2” value at FGFR3 is “A+ (Selectivity of FGFR3/FGFR2 greater or equal to 150)”. For the same molecule, the results for the IC50 with SNU16 cells and at FGFR2 were not above 0.01 µM and more than 0.01 µM, respectively.

Regarding `C=C(F)C(=O)Nc1ccc(-c2nn3ncnc(N)c3c2-c2ccc(C(=O)NCC3(F)CC3)c(OC)c2)cc1` [Compound 204, 4-(4-amino-6-(4-(2-fluoroacrylamido)phe-nyl)pyrazolo[5,1-f][1,2,4]triazin-5-yl)-N-((1-fluorocyclopropyl)methyl)-2-methoxybenzamide], on FGFR1, the “Selectivity FGFR1/FGFR2” value is given as “A+ (Selectivity of FGFR1/FGFR2 greater or equal to 500)”. For the same molecule, the “Selectivity FGFR3/FGFR2” value at FGFR3 is “A (Selectivity of FGFR3/FGFR2 less than 150 but greater than or equal to 100)”. Besides, the IC50 was not above 0.01 µM with SNU16 cells and less than 0.005 µM on FGFR2.

Turning to `C=C(F)C(=O)Nc1ccc(-c2c(-c3ccc(C(=O)NCC(F)(F)F)c(OC)c3)c3c(N)ncc(C#N)c3n2C)c(F)c1` [Compound 151, 4-(4-amino-7-cyano-2-(2-fluoro-4-(2-fluoroacrylamido)phenyl)-1-methyl-1H-pyrrolo [3,2-c]pyridin-3-yl)-2-methoxy-N-(2,2,2-trifluoroethyl)benzamide], the “Selectivity FGFR1/FGFR2” value at FGFR1 is given as “A+ (Selectivity of FGFR1/FGFR2 greater or equal to 500)”. Besides, the “Selectivity FGFR3/FGFR2” value on FGFR3 is given as “A+ (Selectivity of FGFR3/FGFR2 greater or equal to 150)”. Moreover, the results for the IC50 in the test with SNU16 cells and on FGFR2 were not above 0.01 µM and 0.005 to 0.01 µM, respectively.

For `C=C(F)C(=O)Nc1ccc(-c2nn3ncnc(N)c3c2-c2ccc(C(=O)NCC(F)(F)F)c(OC)c2)c(F)c1` [Compound 100, 4-(4-amino-6-(2-fluoro-4-(2-fluoroacrylamido)phenyl)pyrazolo[5,1-f][1,2,4]triazin-5-yl)-2-methoxy-N-(2,2,2-trifluoroethyl)benzamide], at FGFR1, the “Selectivity FGFR1/FGFR2” value is listed as “A+ (Selectivity of FGFR1/FGFR2 greater or equal to 500)”. The “Selectivity FGFR3/FGFR2” value on FGFR3 is on record as “A+ (Selectivity of FGFR3/FGFR2 greater or equal to 150)”. In addition, the IC50 is not above 0.01 µM in the test with SNU16 cells and less than 0.005 µM at FGFR2.

Take `C=CC(=O)Nc1ccc(-c2nn3ncnc(N)c3c2-c2ccc(C(=O)NC3CC3)c(OC)c2)cc1` [Compound 89, 4-(6-(4-acrylamidophenyl)-4-aminopyrazolo[5,1-f] [1,2,4]triazin-5-yl)-N-cyclopropyl-2-methoxybenzamide]: the “Selectivity FGFR1/FGFR2” value at FGFR1 is given as “A+ (Selectivity of FGFR1/FGFR2 greater or equal to 500)”. Further, the “Selectivity FGFR3/FGFR2” value on FGFR3 is listed as “A+ (Selectivity of FGFR3/FGFR2 greater or equal to 150)”. The IC50 with SNU16 cells was not above 0.01 µM; on FGFR2, less than 0.005 µM.

For the molecule `C=CC(=O)Nc1ccc(-c2[nH]c3c(C#N)cnc(N)c3c2-c2ccc(Oc3nccc(C)n3)c(OC)c2)cc1` [Compound 22, N-(4-(4-amino-7-cyano-3-(3-methoxy-4-((4-methylpyrimidin-2-yl)oxy)phenyl)-1H-pyrrolo[3,2-c]pyridin-2-yl)phenyl)acrylamide], the “Selectivity FGFR1/FGFR2” value on FGFR1 is “A (Selectivity of FGFR1/FGFR2 less than 500 but greater than or equal to 300)”. The “Selectivity FGFR3/FGFR2” value on FGFR3 is “B (Selectivity of FGFR3/FGFR2 less than 100 but greater than or equal to 25)”. The IC50 with SNU16 cells was not above 0.01 µM; on FGFR2, less than 0.005 µM.
